In data set [1] the test system is human red blood cells (hRBC). As to the kind of experiment: Hemolysis. The class given is cell-based. The essentials: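 Washed fresh human erythrocytes (20% v/v, about 0.9×10^9 cells/ml final) incubated with peptide at 100 μM for 1 h at 37° C. Supernatant diluted 20-fold and OD540 read. Percent hemolysis relative to 0.1% Triton X-100 in H2O (100%), with PBS alone as 0%.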

A short description of the next data set: in vitro. Particulars: human.
The next data set has as its target CXCR4 (Homo sapiens, UniProt P61073). As to the kind of experiment: Ca2+-assay method 2 (Flexstation, SDF-1 induced calcium mobilization). The class given is cell-based. Details: expressed in transfected cells; host or cells: mouse pre-B cell line 300-19. Particulars: method 2 (Ex. 54-160), mouse pre-B cell line 300-19 with human CXCR4, 10 nM SDF-1; read-out: IC50 (nM) Ca^2+ assay. (Calcium assays in cells follow changes in intracellular calcium, usually with a dye or a luminescent sensor.)

Bridge positions count the residues as written; N and C are the ends. Square brackets hold non-standard residues; d marks the D form. Peptide text beside a SMILES is read from it. 2Nal = N[C@@H](Cc1ccc2ccccc2c1)C(=O)O; Cit = NC(=O)NCCC[C@H](N)C(=O)O
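For GI50 in this document: MTT reduction read as absorbance at 595 nm, blank-corrected and expressed as percent growth relative to the time-zero cell reading, triplicate wells per concentration.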

CXCR4, sequence (P61073 whole entry): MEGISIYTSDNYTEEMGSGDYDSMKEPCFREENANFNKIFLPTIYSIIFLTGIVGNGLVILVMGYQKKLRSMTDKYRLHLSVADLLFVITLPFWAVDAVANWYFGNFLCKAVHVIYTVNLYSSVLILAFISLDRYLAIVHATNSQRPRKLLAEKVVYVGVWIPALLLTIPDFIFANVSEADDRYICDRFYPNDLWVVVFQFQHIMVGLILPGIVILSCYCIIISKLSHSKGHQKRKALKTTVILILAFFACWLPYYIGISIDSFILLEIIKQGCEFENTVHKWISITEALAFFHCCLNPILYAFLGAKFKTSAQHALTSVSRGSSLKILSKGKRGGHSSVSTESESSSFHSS

In general, GI50 refers to the concentration at which growth is held to half of that of the control. In general, IC50 refers to the concentration at which inhibition is half-maximal. In the case of `N=C(N)NCCC[C@@H]1NC(=O)[C@@H]2CSSC[C@H](NC(=O)[C@H](Cc3ccc4ccccc4c3)NC(=O)[C@H](CCCNC(=N)N)NC(=O)[C@H](CCCNC(=N)N)NC(=O)[C@H]3CCCN3C(=O)CNC1=O)C(=O)N[C@@H](Cc1ccc(O)cc1)C(=O)N[C@@H](Cc1ccc(O)cc1)C(=O)N[C@@H](CCCCN)C(=O)N1CCC[C@@H]1C(=O)N1CCC[C@H]1C(=O)N[C@@H](Cc1ccc(O)cc1)C(=O)N[C@@H](CCCNC(=N)N)C(=O)N[C@@H](CCCNC(N)=O)C(=O)N2` [Ex. 59] (cyclo(YR[Cit]CRG[dP]RR[2Nal]CYYK[dP]P); disulfide 4-11), the Hemolysis at 100 μM in data set [1] amounted to 0.1%. The same compound displayed a 50% growth inhibitory concentration (GI50) at 48 h in the data set “in vitro” of 33000 nM. At CXCR4, the IC50 worked out at 7.8 nM.

Compound `C[C@@H]1NC(=O)[C@H](CCCNC(=N)N)NC(=O)[C@H](Cc2ccc(O)cc2)NC(=O)[C@@H]2CCCN2C(=O)[C@H]2CCCN2C(=O)[C@H](CCCCN)NC(=O)[C@H](CCC(N)=O)NC(=O)[C@H](Cc2ccc(O)cc2)NC(=O)[C@@H]2CSSC[C@H](NC1=O)C(=O)N[C@@H](CCCNC(=N)N)C(=O)NCC(=O)N1CCC[C@@H]1C(=O)N[C@@H](CCCNC(=N)N)C(=O)N[C@@H](CCCNC(=N)N)C(=O)N[C@@H](Cc1ccc3ccccc3c1)C(=O)N2` [Ex. 95] (cyclo(YRACRG[dP]RR[2Nal]CYQK[dP]P); disulfide 4-11) returned a Hemolysis at 100 μM in data set [1] of 0.1%. This compound also displayed a GI50 at 48 h in “in vitro” of 41000 nM. Moreover, the IC50 on CXCR4 was 2.9 nM.

With `N=C(N)NCCC[C@@H]1NC(=O)[C@@H]2CSSC[C@H](NC(=O)[C@H](Cc3ccc4ccccc4c3)NC(=O)[C@H](CCCNC(=N)N)NC(=O)[C@H](CCCNC(=N)N)NC(=O)[C@H]3CCCN3C(=O)CNC1=O)C(=O)N[C@@H](Cc1ccc(O)cc1)C(=O)N[C@@H](CCCCN)C(=O)N[C@@H](CCCCN)C(=O)N1CCC[C@@H]1C(=O)N1CCC[C@H]1C(=O)N[C@@H](Cc1ccc(O)cc1)C(=O)N[C@@H](CCCNC(=N)N)C(=O)N[C@@H](CCCNC(N)=O)C(=O)N2` [Ex. 79] (cyclo(YR[Cit]CRG[dP]RR[2Nal]CYKK[dP]P); disulfide 4-11), the Hemolysis at 100 μM in data set [1] came out at 0%. The same compound came in with a GI50 at 48 h in the data set “in vitro” of 94000 nM. Moreover, on CXCR4, the IC50 was found to be 2.4 nM.

As to `N=C(N)NCCC[C@@H]1NC(=O)[C@@H]2CSSC[C@H](NC(=O)[C@H](Cc3ccc4ccccc4c3)NC(=O)[C@H](CCCNC(=N)N)NC(=O)[C@H](CCCNC(=N)N)NC(=O)[C@H]3CCCN3C(=O)CNC1=O)C(=O)N[C@@H](Cc1ccc(O)cc1)C(=O)N[C@@H](CCC(N)=O)C(=O)N[C@@H](CCCCN)C(=O)N1CCC[C@@H]1C(=O)N1CCC[C@H]1C(=O)N[C@@H](Cc1ccc(O)cc1)C(=O)N[C@@H](CCCNC(=N)N)C(=O)N1CCC[C@H]1C(=O)N2` [Ex. 74] (cyclo(YRPCRG[dP]RR[2Nal]CYQK[dP]P); disulfide 4-11), the Hemolysis at 100 μM in data set [1] worked out at 0.4%. This compound also had a 50% growth inhibitory concentration (GI50) at 48 h in the data set “in vitro” of 40000 nM. Further, the IC50 at CXCR4 stood at 19.5 nM.

Compound `N=C(N)NCCC[C@@H]1NC(=O)[C@@H]2CSSC[C@H](NC(=O)[C@H](Cc3c[nH]c4ccccc34)NC(=O)[C@H](CCCNC(=N)N)NC(=O)[C@H](CCCNC(N)=O)NC(=O)[C@H]3CCCN3C(=O)CNC1=O)C(=O)N[C@@H](Cc1ccc(O)cc1)C(=O)N[C@@H](CCCNC(N)=O)C(=O)N[C@@H](CCCCN)C(=O)N1CCC[C@@H]1C(=O)N1CCC[C@H]1C(=O)N[C@@H](Cc1ccc(O)cc1)C(=O)N[C@@H](CCCNC(=N)N)C(=O)N[C@@H](CCCNC(N)=O)C(=O)N2` [Ex. 136] (cyclo(YR[Cit]CRG[dP][Cit]RWCY[Cit]K[dP]P); disulfide 4-11) had a Hemolysis at 100 μM in data set [1] of 0%. Moreover, the GI50 at 48 h in “in vitro” is > 100000 nM. Besides, at CXCR4, the IC50 stood at 4.1 nM.

(Values after patent US8895695B2, “Template-fixed beta-hairpin peptidomimetics with CXCR4 antagonizing activity” (priority 2003, dated 2014).)
